Like-named read-outs stand apart in the source and are kept apart here.
Test system: HIV-1 BaL strain
Assay: Anti-HIV-1 activity: alkaline phosphatase reporter in MOLT-4/CCR5/LTR-SEAP cells infected with HIV-1 BaL strain
Format: cell-based
Conditions: for EC50: read-out: EC50 (activity of inhibiting viral growth by 50%); for EC90: read-out: EC90 (activity of inhibiting viral growth by 90%)
Experimental: The alkaline phosphatase activity was measured by using Great EscAPe SEAP Detection Kit manufactured by Clontech. Fifty microliters of a diluent was added to 15 μl of the culture supernatant and incubated at 65° C. for 30 minutes. The reaction solution was cooled to room temperature, and then 50 μl of the reaction solution was transferred to a white plate, and 50 μl of an assay buffer was added thereto and incubated at room temperature for 5 minutes. Fifty microliters of a luminescence substrate was added thereto, incubated at room temperature for 10 minutes, and measured for chemiluminescence by a luminometer.
A mixture of 2×10^4of MOLT-4/CCR5/LTR-SEAP cells, 1000 CCID50 (cell culture infective dose 50%) of the virus and a test compound (Table 1) at various concentrations was cultured at 37° C. in 5% CO2 gas for 5 days. A quarter of the culture was subcultured for 5 days. On the tenth day after the infection, the culture supernatant was recovered, and the alkaline phosphatase activity was measured. The anti-HIV-1 activity (the inhibition rate) of a test compound was calculated from the following formula:
Inhibition rate (%)=(1−(chemiluminescence^1/chemiluminescence^2))×100
Chemiluminescence^1=chemiluminescence with addition of a test compound (ii)−chemiluminescence without viral infection (iii).
Chemiluminescence^2=chemiluminescence without addition of a test compound (i)−chemiluminescence without viral infection (iii).

[1] = Human immunodeficiency virus 1, BAL
[2] = MOLT-4/CCR5/LTR-SEAP cells, 1000 CCID50 HIV-1 BaL strain, alkaline phosphatase activity in culture supernatant on tenth day after infection

Structure (SMILES) | EC50 [1] [µM] | EC90 [1] [µM] | EC50 (Human immunodeficiency virus 1, MOLT-4/CCR5/LTR-SEAP cells, 1000 CCID50 HIV-1 BaL strain, alkaline phosphatase activity in culture supernatant on tenth day after infection) [µM] | EC50 [2] [µM] | EC90 [2] [µM]
Cc1cn([C@H]2C=C[C@@H](CO)O2)c(=O)[nH]c1=O [Compound 1, 2′,3′-didehydro-3′-deoxythymidine] | 0.016 | 0.26 |  |  | 
Cc1ccnc2c1NC(=O)c1cccnc1N2C1CC1 [Compound 2, 11-cyclopropyl-5,11-dihydro-4-methyl-6H-dipyrido[3,2-b:2′,3′-e] [1,4]diazepin-6-one] |  | 0.35 | 0.04 |  | 
Cc1c(O)cccc1C(=O)N[C@@H](CSc1ccccc1)[C@H](O)CN1C[C@H]2CCCC[C@H]2C[C@H]1C(=O)NC(C)(C)C [Compound 3, (-)-(3S,4aS,8aS)-N-tert-butyl-2-[(2R,3R)-2-hydroxy-3-(3-hydroxy-2-methylbenzoylamino)-4-(phenylthio)butyl]decahydroisoquinoline-3-carboxamide monomethanesulfonate] | 0.00067 | 0.17 |  |  | 
Cc1ccc(-c2ccc3c(c2)C=C(C(=O)Nc2ccc(C[N+](C)(C)C4CCOCC4)cc2)CCC3)cc1 [Compound 4, N,N-dimethyl-N-(4-(((2-(4-methylphenyl)-6,7-dihydro-5H-benzocyclohepten-8-yl)carbonyl)-N-(4-tetrahydropyranyl)ammonium chloride] |  |  |  | 0.021 | 0.68

Source: patent publication US20040043380A1, “T cell line and use thereof” (priority 2000, published 2004)
